The source of these data is EP0363255A1, “Analogues of 4-desoxydaunosamine, process for their preparation, anthracycline derivatives of these analogues and use of these anthracyclines as medicaments” (LABORATOIRES HOECHST S.A., priority 1988, dated 1990).

For series [1], the system named is cellules tumorales L 1210. As to the kind of experiment: Test de prolifération (réduction MTT), L1210. The series is classed as cell-based. The conditions noted are these: 72 h incubation. As for the experimental part:
(§1) Des cellules tumorales L 1210, A 549 et HT 29 en croissance exponentielle, à une densité de 5.10³/ml dans un milieu RPMI, sont incubées dans des plaques de microtitration contenant 96 puits, pendant 72 heures (37°C, 5 % CO₂, 95 % d'humidité relative) avec diffé-rentes concentrations de chacun des glycosides conformes à l'invention.
(§2) Les témoins consistent en cellules tumorales dans un milieu de culture frais.
(§3) Quatre puits sont préparés pour chaque concentration de glycoside et pour le témoin.
(§4) Après 65 heures, 50 µl de MTT (2,5 mg/ml dans du PBS) sont ajoutés.
(§5) Le MTT sera réduit, en présence de cellules vivantes, en un colorant formazan rouge insoluble.
(§6) Après 7 à 24 heures d'incubation supplémentaire, le surnageant est enlevé.
(§7) Le colorant formazan est solubilisé par l'addition de 100 µl de DMSO dans chaque puits, suivie d'une agitation douce. L'extinction est mesurée pour chaque puits, à 492 nm (photomètre Multiscan 340 cc, Fa. Flow).
(§8) Les résultats sont exprimés sous forme de relation de l'extinction après incubation avec les glycosides par rapport à l'extinction obtenue avec les té-moins. Le coefficient de variation est inférieur à 15 %. Les résultats sont représentés dans le tableau I, ci-après : […]

The next series concerns cellules tumorales HT 29. As to the kind of experiment: Test de prolifération (réduction MTT), HT 29. It is filed as cell-based. The note with it: HT 29, MTT test, 72 h incubation. On the procedure: as §1, §2, §3, §4, §5, §6, §7, §8
(Tetrazolium dyes change colour on reduction, which living cells bring about.)

Another series relates to cellules tumorales A 549. As to the kind of experiment: Test de prolifération (réduction MTT), A 549. The series is classed as cell-based. The conditions noted are these: A 549, MTT test, 72 h incubation. On the procedure: as §1, §2, §3, §4, §5, §6, §7, §8
The test system of a further series is leucémie L1210. The note with it: mouse, leucémie L1210, compared with daunorubicine 2a / doxorubicine 2b; cited from earlier work.
The test system of the next series is sarcome S 180. The note with it: mouse, sarcome S 180, compared with daunorubicine 2a / doxorubicine 2b; cited from earlier work.
In another series the test system is leucémie P 388. The note with it: mouse, leucémie P 388, compared with daunorubicine 2a / doxorubicine 2b; cited from earlier work.
The conditions of series [2]: animal models, compared with 2a and 2b; cited from earlier work.

For the compound `COc1cccc2c1C(=O)c1c(O)c3c(c(O)c1C2=O)C[C@@](O)(C(C)=O)C[C@@H]3O[C@H]1C[C@H](CNC(=O)C(F)(F)F)C[C@H](C)O1` [15a, O-(N-TRIFLUOROACETYL AMINOMETHYL-3′ TETRADESOXY-2′, 3′, 4′,6′-α-L-LYXO-HEXOPYRANOSYL)-7 DAUNOMYCINONE], the IC₅₀ in series [1] is given as 0,25 µg/ml; with cellules tumorales HT 29 it was 0,67 µg/ml; with cellules tumorales A 549 it was 0,43 µg/ml.
The corresponding values for `CC[C@@]1(O)C[C@H](O[C@H]2C[C@H](CNC(=O)C(F)(F)F)C[C@H](C)O2)c2c(O)c3c(c(O)c2[C@H]1O)C(=O)c1cccc(O)c1C3=O` [16a, O-(N-TRIFLUOROACETYL AMINOMETHYL-3′ TETRADESOXY-2′,3′, 4′,6′-α-L-LYXO-HEXOPYRANOSYL)-7 β-RHODOMYCINONE] are 0,14 µg/ml, 0,48 µg/ml and 0,14 µg/ml.
As for `COc1cccc2c1C(=O)c1c(O)c3c(c(O)c1C2=O)C[C@@](O)(C(C)=O)C[C@@H]3O[C@H]1C[C@H](N)C[C@H](C)O1` [compound 3], the activité in vivo entry in the series with leucémie L1210, in the series with sarcome S 180 and with leucémie P 388 was “aussi actifs” each time. Moreover, the cardiotoxicité result in series [2] was “moins cardiotoxiques”.
On to `COc1cccc2c1C(=O)c1c(O)c3c(c(O)c1C2=O)C[C@@](O)(C(=O)CO)C[C@@H]3O[C@H]1C[C@H](N)C[C@H](C)O1` [compound 4], for which the activité in vivo result in the series on leucémie L1210, in the series with sarcome S 180 and in the series on leucémie P 388 was “aussi actifs” throughout. The cardiotoxicité result in series [2] is “moins cardiotoxiques”.
